Reference: patent US20200317784A1, “METHODS AND COMPOSITIONS FOR TREATING CANCER BY MODIFYING MULTIPLE ARMS OF THE IMMUNE SYSTEM” (BioXcel Therapeutics, Inc., priority 2017, published 2020)

Legend:
Pan02 tumor cells = assay: Anti-tumor efficacy in Pan02 syngeneic mouse model of pancreatic carcinoma; format: in vivo; details: Pan02 s.c., C57BL/6 mice
Source text: Six to eight-week-old female C57BL/6 mice were used in the studies as supplied by Beijing Vital River Laboratory Animal Technology Co., Ltd. Mice received food and water ad libitum. The study protocol and the procedures involving the care and use of animals were reviewed and approved by the Institutional Animal Care and Use Committee (IACUC) to ensure compliance with the regulations of the Association for Assessment and Accreditation of Laboratory Animal Care (AAALAC).
Stock solutions of the PD-1 antagonist at 1 mg/ml concentrations were prepared and kept at 4° C. prior to use. Dosing solutions of the PD-1 antagonist were prepared freshly at a concentration of 1 mg/ml before every administration in sterile phosphate buffered saline (PBS), adjusted to pH 7.0, and administered at a dose of 10 mg/kg intraperitoneally (i.p) per 20 g mouse. […] Talabostat mesylate was obtained from a commercial source, and prepared freshly at a working concentration of 0.1 mg/ml before every administration in sterile phosphate buffered saline (pH 7.0), maintained at 4° C., and administered perorally (p.o.) at a total dose of 20 μg per 20 g mouse.
The tumor cells were routinely sub-cultured twice per week bytrypsin-EDTA treatment. The cells in anexponential growth phase were harvested and counted for tumor inoculation. […] The date of tumor cell inoculation was denoted as Day 0.
The dosing of the agents was started on day 5 after tumor inoculation and continued until Day 28 after tumor inoculation.
Body weight (in grams), and tumor volumes (in mm^3) were measured on Days 5, 8, 12, 15, 19, 22, 26 and 29. […] Tumor volume, expressed in mm^3, was measured with a calliper.
Data related to tumor volume are presented as mean and the standard error of the mean (SEM). Statistical analyses were conducted using Student's t-test. P<0.05 and P<0.001 were considered statistically significant.
% Tumor reduction=(Mean tumor volume^vehicle control−Mean tumor volume^treatmet_group)/Mean tumor volume^vehicle control×100Table 1B. Results

[1] = system: Ly6G+ cells (tumoricidal neutrophils); assay: IHC of neutrophil infiltrate in Pan02 tumor samples; details: Day 8; compared to vehicle and PD-1 antagonist alone
Description: Tumor samples from the study groups were analyzed for infiltration of immune cells. […] The data was analyzed using GraphPad Prism 5. p<0.05 was statistically significant (*, p<0.05; **, p<0.01; ***, p<0.001).

melanoma = melanoma patients; Postow et al. 2015; cited from earlier work

Compound | % Tumor Reduction compared to vehicle control (Pan02 tumor cells; Day 19 after tumor inoculation) [%] | % Tumor Reduction compared to vehicle control (Pan02 tumor cells; Day 22 after tumor inoculation) [%] | % Tumor Reduction compared to vehicle control (Pan02 tumor cells; Day 26 after tumor inoculation) [%] | % Tumor Reduction compared to vehicle control (Pan02 tumor cells; Day 29 after tumor inoculation) [%] | Ly6G+ cells in tumor (IHC) [1] | response rate (melanoma) [%]
CC(C)[C@H](N)C(=O)N1CCC[C@H]1B(O)O.CS(=O)(=O)O [Talabostat mesylate, [(2R)-1-[(2S)-2-amino-3-methylbutanoyl]pyrrolidin-2-yl]boronic acid; methanesulfonic acid] | 61.23 | 58.18 | 65.42 | 65.61 | significant increase | –
ipilimumab: human monoclonal anti-CTLA-4 antibody | – | – | – | – | – | 11
nivolumab | – | – | – | – | – | 32
